Like-named read-outs stand apart in the source and are kept apart here.
How the values were obtained:
[1] = DPPH radical scavenging activity; format: biochemical
Procedure: The scavenging activity of DPPH radical was investigated as described with slight modification. DPPH solution was prepared diluted by EtOH to reach the final concentration of 200 µM. Different concentrations (200, 100, 50, 25, and 12.5 µg/mL) of extracts or compounds (100 µL) were mixed with DPPH solution (100 µL) and incubated for 30 min at room temperature and in darkness, and the absorbance of the mixture was measured at 520 nm. DPPH radical scavenging activity was calculated with the following formula: DPPH scavenging activity (%) = (Ac − At)/Ac × 100, where At is the absorbance of the test sample, and Ac is the absorbance of the control (untreated group). BHT was used as the positive control. All half-maximal inhibitory concentration (IC50) values of tested activities were determined by the linear regression of the percentage of remaining DPPH radical against the sample’s concentration.

[2] = ABTS radical scavenging activity; format: biochemical
Procedure: ABTS radical scavenging activity of each extract was measured based on the method with slight changes. In brief, the stock of working solution was prepared by the mix of 28 mM ABTS solution and 9.6 mM potassium persulfate with ddH2O (final concentration, 1/1, v/v) and leaving the mixture in the dark for about 16 h at room temperature before use. The working solution was diluted by EtOH to reach the absorbance of 0.70 ± 0.02 at 740 nm for further experiments. Different concentrations (200, 100, 50, 20, and 12.5 µg/mL) of extracts or compounds (10 µL) were mixed with the working solution (190 μL). The mixture was incubated at room temperature for 6 min, the antioxidant activity of the mixture was determined by calculating the decrease in absorbance measured at 740 nm by the following equation:ABTS radical inhibiting activity (%) = (Ac − At)/Ac × 100,
Where Ac and At are the absorbance of the control (untreated group) and test sample, respectively. The IC50 values of all tested activities were determined by the liner regression of the percentage of remaining ABTS radical against the sample’s concentration.

[3] = Hydroxyl radical scavenging activity (Fenton reaction, deoxyribose); format: biochemical
Procedure: The scavenging activity of hydroxyl radical was measured based on the method described by Mathew and Abraham with slight revision. In short, different concentrations (400, 200, 10, 50, and 25 µg/mL) of extracts or compounds (200 μL) were mixed with working solution (200 μL) contained 1 mM FeCl3, 1 mM EDTA, and 2.8 mM deoxyribose. Then, 20 μL ascorbic acid (1 mM) and 100 μL H2O2 (20 mM) in sodium phosphate buffer (20 mM pH 7.4) was added. The mixture was incubated in a water bath at 37 °C for 1 h to trigger the Fenton reaction and form a hydroxyl radical. After incubation, 2.8% TCA (200 μL) and 1% TBA (200 μL) were added and boiled in the dry bath at 100 °C for 1 h. The mixture was measured at 532 nm by the following equation:Hydroxyl radical scavenging activity (%) = (Ac − At)/Ac × 100, where At and Ac are the absorbance of the test sample and the control (untreated group), respectively. The IC50 values of all tested activities were determined by the linear regression of the percentage of remaining hydroxyl radical against the sample’s concentration.

[4] = Ferric reducing antioxidant power (FRAP); format: biochemical
Procedure: Ferric reducing antioxidant power was measured based on previous study with slight modification. The working solution was mixed with acetate buffer (pH 3.6), ferric chloride solution (20 mM), and TPTZ solution (10 mM TPTZ in 40 mM HCl) in a proportion of 10:1:1, respectively, and freshly prepared before used. An amount of 900 μL of the working solution was warmed to 37 °C and then mixed with 100 μL of the diluted sample, blank or standard in a microcentrifuge tube. The tubes were vortexed and in the dry bath at 37 °C for 40 min. Absorbance was measured at 593 nm. […] Results are expressed in mM TE/g dry weight. Additional dilution was needed if the FRAP value measured was over the linear range of the standard curve.

[5] = Superoxide radical scavenging activity (PMS/NADH-NBT system); format: biochemical; conditions: isolated components (Table 5)
Procedure: The scavenging activity of superoxide anion radical (O2^•−) was evaluated using a modified method. NBT (300 μM), NADH (468 μM), and PMS (120 μM) were prepared with dilution by Tris-HCl buffer (16 mM, pH 8.0), respectively. An amount of 50 μL of NBT, PMS, and different concentrations (400, 200, 10, 50, and 25 µg/mL) of extracts or compounds were mixed. An amount of 50 μL NADH solution was added, and the reaction was initiated to produce superoxide radicals. The absorbance was measured at 560 nm after incubating at room temperature for 5 min. The scavenging activity was measured by the following equation:Superoxide radical scavenging activity = (Ac − At)/Ac × 100, where At is the absorbance of the test sample, and Ac is the absorbance of the control (untreated group). The IC50 values of all tested activities were determined by the linear regression of the percentage of remaining superoxide radical against the sample concentration.

α-glucosidase = biological target: T1, α-glucosidase (Saccharomyces cerevisiae, UniProt P53341); experiment: biochemical
T1 construct: purchased Sigma-Aldrich
Procedure: The inhibition assay of α-glucosidase was conducted using the conditions previously reported with slight modifications. The α-Glucosidase solution was diluted by 0.1 M sodium phosphate buffer (pH 6.8) to 1 U/mL. […] Subsequently, p-NPG (0.53 mM; 380 μL), the substrate, was added and incubated in dry baths at 37 °C for 40 min after the mixture vortexed. The reaction was terminated after adding 0.1 M Na2CO3 solution (500 μL). The absorbance of released p-nitrophenol (p-PNP) was measured by calculating the decrease in absorbance measured at 400 nm by the following equation:α-Glucosidase inhibition (%) = (Ac − At)/Ac × 100, where Ac is the absorbance of the control (untreated group), and At is the absorbance of the test sample. The IC50 values of all tested activities were determined by the linear regression of the percentage of remaining α-glucosidase against the sample concentration.

[6] = isolated components, BHT positive control (Table 5)
[7] = solvent extracts, BHT positive control (Table 2)
[8] = isolated components, mM Trolox equivalents per gram (Table 5)

T1 sequence (P53341 whole entry): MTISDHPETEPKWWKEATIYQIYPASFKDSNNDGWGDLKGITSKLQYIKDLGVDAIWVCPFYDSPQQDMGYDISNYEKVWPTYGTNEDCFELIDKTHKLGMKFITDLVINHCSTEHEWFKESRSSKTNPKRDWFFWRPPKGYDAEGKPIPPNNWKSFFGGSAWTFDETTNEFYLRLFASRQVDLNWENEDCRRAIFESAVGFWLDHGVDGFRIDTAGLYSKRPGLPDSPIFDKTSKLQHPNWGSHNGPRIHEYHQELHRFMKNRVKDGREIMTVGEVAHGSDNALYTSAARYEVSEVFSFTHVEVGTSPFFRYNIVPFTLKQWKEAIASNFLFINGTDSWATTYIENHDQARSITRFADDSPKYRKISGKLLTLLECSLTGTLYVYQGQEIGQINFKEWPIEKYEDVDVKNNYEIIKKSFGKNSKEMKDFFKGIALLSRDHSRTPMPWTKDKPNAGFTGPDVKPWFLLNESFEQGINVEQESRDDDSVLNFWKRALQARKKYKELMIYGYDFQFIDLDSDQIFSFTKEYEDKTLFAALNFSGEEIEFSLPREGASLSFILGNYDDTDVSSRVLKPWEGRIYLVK

Row | SMILES | DPPH IC50 [1, 6] | DPPH IC50 ([1]; solvent extracts of C. pinnatifida fruits, BHT positive control (Table 2)) | ABTS IC50 [2, 6] | ABTS IC50 [2, 7] | Hydroxyl IC50 [3, 6] | Hydroxyl IC50 [3, 7] | FRAP (TE) [4, 8] | FRAP (TE) ([4]; millimolar Trolox equivalents per gram of extract (Table 2)) | Superoxide IC50 [5] | FRAP (TE) ([4]; isolated components, mM Trolox equivalents per gram (Table 5), listed as epicatechin) | IC50 (α-glucosidase; read-out: α-Glucosidase IC50 (converted)) | IC50 (α-glucosidase) | FRAP (TE) ([4]; isolated components, mM Trolox equivalents per gram (Table 5), listed as procyanidin B2)
1 | Cc1cc(C(C)(C)C)c(O)c(C(C)(C)C)c1 [BHT, Butylated hydroxytoluene, reference compound] | 24.04 ± 4.40 µg/mL | 34.28 ± 1.40 µg/mL | 16.13 ± 3.29 µg/mL | 12.34 ± 0.29 µg/mL | 60.62 ± 2.58 µg/mL | 61.51 ± 2.46 µg/mL | 4257.97 ± 44.90 mM/g | 4257.97 ± 44.90 mM/g | – | – | – | – | –
2 | Oc1cc(O)c2c(c1)O[C@H](c1ccc(O)c(O)c1)[C@H](O)C2 [Epicatechin, epicatechin] | 2.53 ± 0.25 µg/mL | – | 3.75 ± 0.03 µg/mL | – | 20 ± 3.49 µg/mL | – | 13,165.19 ± 42.42 mM/g | – | 41.56 ± 0.20 µg/mL | ≥ 7726.67 ± 39.97 mM/g | 282 µM | – | –
3 | O=c1c(O[C@@H]2O[C@H](CO)[C@H](O)[C@H](O)[C@H]2O)c(-c2ccc(O)c(O)c2)oc2cc(O)cc(O)c12 [Hyperoside, hyperoside] | 5.29 ± 0.17 µg/mL | – | 18.00 ± 0.16 µg/mL | – | – | – | – | – | 10.59 ± 0.22 µg/mL | – | – | 75.3 µM | –
4 | Oc1cc(O)c2c(c1)O[C@H](c1ccc(O)c(O)c1)[C@H](O)[C@H]2c1c(O)cc(O)c2c1O[C@H](c1ccc(O)c(O)c1)[C@H](O)C2 [Procyanidin B2, procyanidin B2] | 2.81 ± 0.08 µg/mL | – | 2.91 ± 0.57 µg/mL | – | 13.69 ± 1.88 µg/mL | – | 11,092.44 ± 32.92 mM/g | – | 37.22 ± 0.63 µg/mL | – | – | 205 µM | ≥ 7726.67 ± 39.97 mM/g
